Source: PubChem BioAssay AID248 (DTP/NCI, 2004)
Toxic doses and inconclusive results are not listed. No stated cut-off is given here; in the data, active means T/C of 150% or more; inactive means T/C below 125%.

Tested on: L1210 leukemia ip in BDF1 mice, survival T/C
Assay: NCI In Vivo Anticancer Drug Screen. Data for tumor model L1210 Leukemia (intraperitoneal) in B6D2F1 (BDF1) mice
Settings: endpoint: mean survival time, higher = longer survival
How it was run: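 Antitumor effect is assessed in tumor-bearing animals. Survival in the compound arm is compared with a vehicle-dosed control arm and expressed as their quotient.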

[1] = dose: 100.0 mg/kg/injection, schedule: Q01DX009 (ip), vehicle: saline
[2] = dose: 200.0 mg/kg/injection, schedule: Q01DX009 (ip), vehicle: saline
[3] = dose: 100.0 mg/kg/injection, schedule: Q04DX002 (ip), vehicle: Klucel (hydroxypropylcellulose) (HPC)
[4] = dose: 200.0 mg/kg/injection, schedule: Q04DX002 (ip), vehicle: Klucel (hydroxypropylcellulose) (HPC)
[5] = dose: 400.0 mg/kg/injection, schedule: Q04DX002 (ip), vehicle: Klucel (hydroxypropylcellulose) (HPC)
[6] = dose: 100.0 mg/kg/injection, schedule: Q01DX001 (sc), vehicle: steriod suspending solution
[7] = dose: 200.0 mg/kg/injection, schedule: Q01DX001 (sc), vehicle: steriod suspending solution
[8] = dose: 400.0 mg/kg/injection, schedule: Q01DX001 (sc), vehicle: steriod suspending solution
[9] = dose: 100.0 mg/kg/injection, schedule: Q04DX003 (ip), vehicle: acetone
[10] = dose: 200.0 mg/kg/injection, schedule: Q04DX003 (ip), vehicle: acetone
[11] = dose: 100.0 mg/kg/injection, schedule: Q01DX001 (ip), vehicle: Klucel (hydroxypropylcellulose) (HPC)
[12] = dose: 200.0 mg/kg/injection, schedule: Q01DX001 (ip), vehicle: Klucel (hydroxypropylcellulose) (HPC)
[13] = dose: 100.0 mg/kg/injection, schedule: Q04DX003 (ip), vehicle: saline with Tween-80
[14] = dose: 200.0 mg/kg/injection, schedule: Q04DX003 (ip), vehicle: saline with Tween-80
[15] = dose: 400.0 mg/kg/injection, schedule: Q04DX003 (ip), vehicle: saline with Tween-80
[16] = dose: 100.0 mg/kg/injection, schedule: Q01DX001 (ip), vehicle: saline
[17] = dose: 200.0 mg/kg/injection, schedule: Q01DX001 (ip), vehicle: saline
[18] = dose: 400.0 mg/kg/injection, schedule: Q01DX001 (ip), vehicle: saline
[19] = dose: 100.0 mg/kg/injection, schedule: Q04DX003 (ip), vehicle: saline
[20] = dose: 200.0 mg/kg/injection, schedule: Q04DX003 (ip), vehicle: saline
[21] = dose: 50.0 mg/kg/injection, schedule: Q01DX009 (ip), vehicle: saline

Measured: T/C

Nc1ccccc1O
inactive: dose: 12.5 mg/kg/injection, schedule: Q04DX003 (ip), vehicle: Klucel (hydroxypropylcellulose) (HPC) 100 % of control | dose: 25.0 mg/kg/injection, schedule: Q04DX003 (ip), vehicle: Klucel (hydroxypropylcellulose) (HPC) 100 % of control | dose: 50.0 mg/kg/injection, schedule: Q04DX003 (ip), vehicle: Klucel (hydroxypropylcellulose) (HPC) 92 % of control | [1] 110 % of control | [2] 105 % of control | dose: 400.0 mg/kg/injection, schedule: Q01DX009 (ip), vehicle: saline 108 % of control | dose: 600.0 mg/kg/injection, schedule: Q01DX009 (ip), vehicle: saline 92 % of control

OC1C/C=C/CCCCC1 (stereo not given)
inactive: [3] 106 % of control | [4] 100 % of control | [5] 103 % of control

CC12CCC(O)CC1CCC1C2CCC2(C)C(C(=O)CO)CCC12 (stereo not given)
inactive: [6] 103 % of control | [7] 103 % of control | [8] 101 % of control

O=C1OC(=O)C2C3C=CC(C12)C1C3C1N1C(=O)CCC1=O (stereo not given)
inactive: dose: 50.0 mg/kg/injection, schedule: Q04DX003 (ip), vehicle: acetone 96 % of control | [9] 88 % of control | [10] 95 % of control

COc1ccc(C)cc1NC(=O)NC(=O)c1ccc(Cl)cc1
inactive: dose: 50.0 mg/kg/injection, schedule: Q01DX009 (ip), vehicle: saline with Tween-80 88 % of control | dose: 100.0 mg/kg/injection, schedule: Q01DX009 (ip), vehicle: saline with Tween-80 98 % of control | dose: 200.0 mg/kg/injection, schedule: Q01DX009 (ip), vehicle: saline with Tween-80 95 % of control

N#CC1SCCCS1
inactive: dose: 50.0 mg/kg/injection, schedule: Q01DX001 (ip), vehicle: Klucel (hydroxypropylcellulose) (HPC) 104 % of control | [11] 105 % of control | dose: 100.0 mg/kg/injection, schedule: Q04DX002 (ip), vehicle: saline with Tween-80 101 % of control | [12] 96 % of control | dose: 200.0 mg/kg/injection, schedule: Q04DX002 (ip), vehicle: saline with Tween-80 108 % of control | dose: 400.0 mg/kg/injection, schedule: Q04DX002 (ip), vehicle: saline with Tween-80 108 % of control

C[C@]12CCC(=O)C=C1CC[C@@H]1[C@@H]2[C@@H](O)C[C@@]2(C)[C@H]1CC[C@]2(O)C(=O)CO
inactive: dose: 12.0 mg/kg/injection, schedule: Q01DX015 (sc), vehicle: steriod suspending solution 100 % of control | dose: 25.0 mg/kg/injection, schedule: Q01DX015 (sc), vehicle: steriod suspending solution 100 % of control | dose: 50.0 mg/kg/injection, schedule: Q01DX015 (sc), vehicle: steriod suspending solution 102 % of control | [6] 102 % of control | dose: 100.0 mg/kg/injection, schedule: Q01DX Z (sc), vehicle: steriod suspending solution 101 % of control | [7] 108 % of control | dose: 200.0 mg/kg/injection, schedule: Q01DX Z (sc), vehicle: steriod suspending solution 102 % of control | [8] 108 % of control | dose: 400.0 mg/kg/injection, schedule: Q01DX Z (sc), vehicle: steriod suspending solution 102 % of control | dose: 800.0 mg/kg/injection, schedule: Q01DX Z (sc), vehicle: steriod suspending solution 94 % of control | dose: 1000.0 mg/kg/injection, schedule: Q01DX015 (sc), vehicle: steriod suspending solution 104 % of control

CCOC(=O)C1CC2CC(C1=O)C2(C)C (stereo not given)
inactive: [13] 96 % of control | [14] 101 % of control | [15] 93 % of control

NCC1OC(OC2C(N)CC(N)C(OC3OC(CO)C(O)C(N)C3O)C2O)C(N)CC1O (stereo not given)
inactive: dose: 50.0 mg/kg/injection, schedule: Q04DX002 (ip), vehicle: saline 114 % of control | dose: 100.0 mg/kg/injection, schedule: Q04DX002 (ip), vehicle: saline 103 % of control | dose: 200.0 mg/kg/injection, schedule: Q04DX002 (ip), vehicle: saline 114 % of control

CC(=O)NCCCCC(N)C(=O)O (stereo not given)
inactive: dose: 50.0 mg/kg/injection, schedule: Q01DX001 (ip), vehicle: saline 104 % of control | [16] 93 % of control | [17] 93 % of control | [18] 95 % of control

CCCCCC1SC1CC1SC1CCCCCCCC(=O)N(CCCC)CCCC (stereo not given)
inactive: dose: 30.0 mg/kg/injection, schedule: Q01DX001 (ip), vehicle: saline 102 % of control | [16] 96 % of control | dose: 300.0 mg/kg/injection, schedule: Q01DX001 (ip), vehicle: saline 89 % of control

CCCCC#CCCl
inactive: [16] 102 % of control | [1] 94 % of control | [17] 103 % of control | [18] 111 % of control

Cc1nc2ccccc2cc1CO
inactive: [13] 105 % of control | [14] 102 % of control | [15] 102 % of control

CCOC(=O)c1c[nH]c(=O)n(-c2ccccc2)c1=O
inactive: dose: 100.0 mg/kg/injection, schedule: Q04DX003 (ip), vehicle: Klucel (hydroxypropylcellulose) (HPC) 109 % of control | dose: 200.0 mg/kg/injection, schedule: Q04DX003 (ip), vehicle: Klucel (hydroxypropylcellulose) (HPC) 92 % of control | dose: 400.0 mg/kg/injection, schedule: Q04DX003 (ip), vehicle: Klucel (hydroxypropylcellulose) (HPC) 106 % of control

O=[N+]([O-])c1ccccc1CC1c2ccccc2-c2ccccc21
inactive: [19] 96 % of control | [20] 94 % of control | dose: 400.0 mg/kg/injection, schedule: Q04DX003 (ip), vehicle: saline 93 % of control

CCOc1ccc([N+](=O)[O-])cc1
inactive: [3] 100 % of control | [4] 91 % of control | [5] 103 % of control

[N-]=[N+]=Nc1ccc(-c2nc(N)nc(N)n2)cc1
inactive: [21] 90 % of control | [1] 90 % of control | [9] 100 % of control | [2] 98 % of control | [10] 97 % of control | dose: 400.0 mg/kg/injection, schedule: Q04DX003 (ip), vehicle: acetone 90 % of control

NC(=O)/C=C\C(N)=O
inactive: [21] 103 % of control | dose: 50.0 mg/kg/injection, schedule: Q04DX003 (ip), vehicle: saline 100 % of control | [1] 99 % of control | [19] 104 % of control | [20] 99 % of control

NC(=O)C1C(c2ccccc2)C1c1ccccc1 (stereo not given)
inactive: [3] 97 % of control | [4] 102 % of control | [5] 94 % of control

Cc1ccc(S(=O)(=O)OC2CCCC3CCCCC32)cc1 (stereo not given)
inactive: [16] 98 % of control | [17] 100 % of control | [18] 98 % of control

CC1(C)CC2(OC2c2cccc([N+](=O)[O-])c2)C(=O)c2ccccc21 (stereo not given)
inactive: [11] 90 % of control | [12] 95 % of control | dose: 400.0 mg/kg/injection, schedule: Q01DX001 (ip), vehicle: Klucel (hydroxypropylcellulose) (HPC) 92 % of control
